Assay results: patent US20140080847A1, “Compositions and Methods for Affecting Energy Balance, Body Composition, Fitness, and Well-Being” (OEJM Products Holdings, LLC, priority 2012, published 2014)

Key:
[1] = Acute toxicity and tolerance (MTD) of a single oral dose in New Zealand white rabbits; assay type: in vivo, rabbit; settings: both sexes, New Zealand white, in vivo; rabbit, single oral dose
Method: (§1) The maximum tolerated dose (MTD) of orally administered 1,3-DMPA and 1,4-DMPA was determined in New Zealand white rabbits and Wistar rats.
(§2) Determination of MTD of orally-administered 1,3-DMPA in New Zealand white rabbits: Twenty-four rabbits (twelve male, twelve female) were quarantined for at least seven days and then were randomly divided into four groups with six animals (3 male and 3 female) in each group. […] Animals were observed daily for fourteen days following administration. Each animal's body weight, food intake, mortality, and natural orifices were monitored. Clinical observations included skin condition, gait, movement, neurological disorders, eye condition, feces, convulsions, tremors, activity rate, restlessness, grooming, sleep, aggressiveness, salivation, diarrhea, respiration, appetite, thirst and urine conditions. Other observations included fur condition, mucous membranes, presence or absence of secretions and excretions and autonomic activity, lacrimation, piloerection, pupil size, posture, arched back, distended abdomen, fur, mucous membrane, presence or absence of secretions, tail elevation, motor activity, urination and defecation, and response to handling as well as the presence of clonic or tonic movements, repetitive circling, bizarre behavior, self-mutilation and walking backwards. At the conclusion of the fourteen day monitoring period, gross pathological examination was carried out on all animals. Heart, lung, liver, kidneys, spleen, stomach, large intestine, small intestine, brain and skin were examined for any macroscopic lesions.
(§3) Determination of MTD of orally-administered 1,4-DMPA in New Zealand white rabbits: Thirty rabbits (fifteen male, fifteen female) were quarantined for at least seven days and then were randomly divided into five groups with six animals (3 male and 3 female) in each group. […] Animals were observed daily for fourteen days following administration. Each animal's body weight, food intake, mortality, and natural orifices were monitored. As above, clinical observations included observation of natural orifices for any abnormal secretions and monitoring for the presence or absence of secretions and excretions, monitoring of mucous membranes, fur and skin condition, mortality, gait, posture, arched back, distended abdomen, movement and motor activity, neurological disorders, eye condition and pupil size, feces, convulsions, tremors, tail elevation, activity rate, restlessness, grooming, sleep, aggressiveness, salivation, diarrhea, respiration, appetite, thirst and urine conditions, autonomic activity, lacrimation, piloerection, response to handling, as well as the presence of clonic or tonic movements, repetitive circling, bizarre behavior, self-mutilation and walking backwards. At the conclusion of the fourteen day monitoring period, gross pathological examination was carried out on all animals. Heart, lung, liver, kidneys, spleen, stomach, large intestine, small intestine, brain and skin were examined for any macroscopic lesions.

[2] = test system: New Zealand white rabbits; assay: as above; assay type: in vivo, rabbit
Method: as §1, §2, §3

[3] = Acute toxicity and tolerance (MTD) of a single oral dose in Wistar rats; assay type: in vivo, rat; settings: both sexes, Wistar, in vivo; rat, single oral dose
Method: as §1
(§4) Determination of MTD of orally-administered 1,3-DMPA in Wistar rats: The same general methods and procedures were followed as described above. This study involved forty animals randomly divided into four groups of ten animals (five male, five female) in each group. […] The MTD of a single oral dose of 1,3-DMPA was determined to be between 125 mg/kg and 250 mg/kg.
as §4, with “1,4-DMPA” for “1,3-DMPA”, “group. The groups were treated as follows: Group I (vehicle control—water), Group II (75 mg/kg), Group III (150 mg/kg), and Group IV (300 mg/kg). […] Gross pathological changes were not observed in the treated groups during necropsy.” for “group.”, “150” for “125”, “300 mg/kg in Wistar rats.” for “250 mg/kg.”

Wistar rats = assay: as above; assay type: in vivo, rat
Method: as §1, §4
as §4, with “1,4-DMPA” for “1,3-DMPA”, “group. The groups were treated as follows: Group I (vehicle control—water), Group II (75 mg/kg), Group III (150 mg/kg), and Group IV (300 mg/kg). […] Gross pathological changes were not observed in the treated groups during necropsy.” for “group.”, “150” for “125”, “300 mg/kg in Wistar rats.” for “250 mg/kg.”

human(s) = assay: Comparative effects of 1,3-DMPA and 1,4-DMPA compounds in humans (self-administration); assay type: in vivo; settings: male, 40 mg daily in a dietary supplement containing caffeine, at least seven days
Method: The compounds 1,3-DMPA, racemic 1,4-DMPA, (R)-1,4-DMPA, and (S)-1,4-DMPA were administered to human(s). A non-smoking person of normal weight ingested 40 mg 1,3-DMPA as part of a dietary supplement (dietary ingredients: arginine α-ketoglutarate, creatine monohydrate, β-alanine, caffeine, 1,3-dimethylpentylamine HCL, schisandra cinensis (berry) extract (standardized for schizandrol A)); powder form), self-administered daily for at least seven days. […] To compare the effects of 1,3-DMPA to the effects of 1,4-DMPA, this individual later ingested 1,4-DMPA (racemic) for at least seven days at a dose of 60 mg per day, combined with 250 mg caffeine.
To compare the effects of (R)-1,4-DMPA, and (S)-1,4-DMPA, the individual described above ingested each enantiomer separately. Starting dose was ˜20 mg per day, which was increased to 30 mg per day if treatment was continued. Doses were combined with 250 mg caffeine as described above. […] The dose was increased to 30 mg per day; the total duration of treatment was at least three weeks. […] Ingestion of (S)-1,4-DMPA (25-30 mg per day) with caffeine produced different effects. […] The individual ceased self-administering (S)-1,4-DMPA after several days of experiencing the latter effects.

cats and dogs = settings: early animal studies; cited from earlier work
humans = settings: cited from earlier work

## CCC(C)CC(C)N (centres unmarked) [1,3-DMPA, 1,3-dimethylpentylamine, reference compound]
[1]
  LD50 at 14 days: 324 mg/kg
  MTD at 14 days: 150 to 300 mg/kg
[2]; rabbit, 50 mg/kg or 150 mg/kg oral
  gross pathological observations: no changes
[2]; rabbit, 50 mg/kg oral
  behavioral observations: did not exhibit any behavioral aberrations
[2]; rabbit, 150 mg/kg oral, a few animals, hours 1-6 after administration
  clinical signs: tremors
[2]; rabbit, 300 mg/kg oral
  clinical signs: nasal discharge, salivation, tremors, convulsions and tachycardia
  gross necropsy of animals that died: reddish discoloration in the lungs, multiple watery cyst on the right median lobe of the liver and focal white patches
[2]; rabbit, 300 mg/kg oral, six animals per group, within four hours after dosing
  mortality: four animals in this group died
[2]; rabbit, 50, 150, 300 mg/kg oral, 14-day study period
  mean body weight: consistent increase
[2]; rabbit, 50, 150, 300 mg/kg oral, study period
  mean food intake: normal
[2]; rabbit, treatment groups 50-300 mg/kg, first observations following treatment
  food intake: initial decrease in food intake
[3]
  LD50 at 14 days: 482 mg/kg
  MTD at 14 days: 125 to 250 mg/kg
Wistar rats; rat, 250 mg/kg oral
  additional clinical signs: tremors
  food intake: decreased food intake on Day 3
Wistar rats; rat, 250 mg/kg oral, preterminal mortality
  necropsy analysis: hyperemia in the stomach glandular mucosa; congestion of lungs, liver and adrenals; the presence of blood clots in the cranial cavity; and ballooning of the small intestine with reddish yellow fluid
Wistar rats; rat, 250 mg/kg oral, ten animals per group, within 26 hours of dosing
  mortality: One preterminal mortality
Wistar rats; rat, 50, 125, 250 mg/kg oral, all treatment groups
  mean body weight: consistent increase
Wistar rats; rat, 50 and 125 mg/kg oral
  mean food intake: normal
Wistar rats; rat, 50 and 125 mg/kg oral (lower dose groups)
  mortality: no mortalities
Wistar rats; rat, all treatment groups 50, 125, 250 mg/kg oral
  clinical signs: piloerection, tail elevation, nasal discharge and hyperactivity
human(s)
  CNS stimulation: CNS stimulation, including feelings of restlessness and jitteriness
  appetite: decreased appetite
  heart rate: increased heart rate
  mood: improved mood
  physical performance during exercise and strength training: improved physical performance
Cats and dogs
  vasopressor activity: exhibit vasopressor or vasoconstriction activity
humans; acute oral administration in humans
  vasopressor effects: vasopressor effects similar to the effects of caffeine
humans; humans, following exercise
  glycerol and free fatty acid concentration (markers of lipolysis): increased levels of these markers of lipolysis
humans; humans
  blood pressure: increase blood pressure to a modest degree
  heart rate and circulating catecholamines (norepinephrine and epinephrine): no effect on heart rate or on circulating catecholamines
  norepinephrine levels: no effect on norepinephrine levels
